# Positions of bridges follow the written chain, without caps; N, C: chain ends. Residues, ends and D or L forms follow the SMILES beside them.
# How the values were obtained:
# [1] = test system: concentration of calcium in the serum; assay: Blood calcium-decreasing activity in rats (serum calcium, parallel line assay); type: in vivo, Male Wistar rats
# Procedure: The physiological activities of the pure naturally-occurring stingray calcitonin extracted from the ultimobranchial gland of a stingray and those of synthetic stingray calcitonin obtained in the above-described manner were determined according to the technique of Homma et al (J. Biochem. 100: 459-467, 1986).
# Male Wistar rats weighing 90-110 grams (10 animals in each group) which had fasted for 24 hours prior to the experiment were intravenously injected with a standard solution of salmon calcitonin or eel calcitonin or a solution of the synthetic stingray calcitonin (produced in Example 2) each dissolved in an aqueous 0.9% sodium chloride solution (pH 4.6) containing 0.1% bovine serum albumin at a dose of 1 pmol or 10 pmol per animal. Exactly one hour after the administration, a blood sample was collected from the artery of each test animal and the concentration of calcium in the serum was determined by atomic absorption spectroscopy. Based on the values for serum calcium concentration in rats of the groups in which one of the standard solutions was administered at a dose of 1 pmol or 10 pmol per animal and those in rats of the group in which the stingray calcitonin of the present invention was administered at the same dose, the relative titer of the stingray calcitonin was determined by the standard statistical procedures for parallel line assays. […]
# [2] = test system: grown cartilage cell culture of rabbit costal cartilage; assay: Alkaline phosphatase activity per protein in rabbit costal cartilage cell culture (chondrocyte differentiation); type: cell-based; details: 10 μl of 10^-12 mol/ml calcitonin solution added on fourth and sixth days, 9 days incubation; control about 88,150
# Procedure: When their physiological activities on cartilage cells or chondrocytes were determined according to the technique of Bessey et al (J. Biol. Chem. 164: 321-329, 1964) and that of Lowry et al (J. Biol. Chem. 193: 265-275, 1951), a strong cell differentiation-promoting activity was noted. […]
# After incubation for 9 days, the cell layer (1) was recovered and the alkaline phosphatase activity in each well was determined by the method of Bessey et al (J. Biol. Chem. 164: 321-329, 1946) using p-nitrophenylphosphoric acid as a substrate.
# The amount of protein in each well was also determined by assaying the recovered cell layer (1) in accordance with the method of Lowry et al (J. Biol. Chem. 193: 265-275, 1951) using bovine serum albumin as a standard substance.
# The value for alkaline phosphatase activity per unit weight of protein was calculated from the values for alkaline phosphatase activity and amount of protein determined as above. The calculated value of the control was about 88,150 nmol/30 min/mg-protein. […]
compound,measurement,setting,value
CC[C@H](C)[C@H](NC(=O)[C@H](CC(N)=O)NC(=O)[C@H](CCC(N)=O)NC(=O)[C@H](CC(C)C)NC(=O)[C@H](CCCCN)NC(=O)[C@H](Cc1c[nH]cn1)NC(=O)[C@H](CC(C)C)NC(=O)[C@H](CCC(N)=O)NC(=O)[C@H](CCC(N)=O)NC(=O)[C@H](CO)NC(=O)[C@H](CC(C)C)NC(=O)[C@H](CCCCN)NC(=O)CNC(=O)[C@@H](NC(=O)[C@@H](NC(=O)[C@@H]1CSSC[C@H](N)C(=O)N[C@@H]([C@@H](C)O)C(=O)N[C@@H](CO)C(=O)N[C@@H](CC(C)C)C(=O)N[C@@H](CO)C(=O)N[C@@H]([C@@H](C)O)C(=O)N1)C(C)C)C(C)C)C(=O)N[C@@H](CCC(N)=O)C(=O)N[C@@H](CCCNC(=N)N)C(=O)N[C@H](C(=O)N[C@@H](CC(=O)O)C(=O)N[C@H](C(=O)NCC(=O)N[C@@H](C)C(=O)N[C@@H](C)C(=O)N[C@H](C(=O)N1CCC[C@H]1C(N)=O)[C@@H](C)O)C(C)C)[C@@H](C)O [calcitonin of the present invention] (H-CTSLSTCVVGKLSQQLHKLQNIQRTDVGAATP-NH2; disulfide 1-7),titer (blood calcium-decreasing activity),"[1]; rats, intravenous, 1 pmol or 10 pmol per animal, serum calcium one hour after administration, salmon and eel calcitonin used as standard substances",about 3770 IU/mg
same,blood calcium-decreasing activity (in words),[1]; technique of Homma et al,strong blood calcium-decreasing activity
same,alkaline phosphatase activity per unit weight of protein,[2],"about 106,000 nmol/30 min/mg-protein"
